According to US12679848B2, “Plasma kallikrein inhibitors” (Merck Sharp & Dohme LLC, priority 2020, dated 2026):

Assays:
[1] = biological target: T1, Human plasma kallikrein (Homo sapiens, UniProt P03952); experiment: Plasma Kallikrein Assay; format: biochemical; details: purified Human plasma kallikrein 0.5 nM, substrate Acetyl-K-P-R-AFC, HEPES pH 7.4; read-out: PKal IC50
T1 construct: yields a heavy chain (371 amino acids) and a light chain (248 amino acids); The active site of plasma kallikrein is contained in the light chain; purchased Enzyme Research Laboratories
T1 sequence (P03952 391-638 limits assumed): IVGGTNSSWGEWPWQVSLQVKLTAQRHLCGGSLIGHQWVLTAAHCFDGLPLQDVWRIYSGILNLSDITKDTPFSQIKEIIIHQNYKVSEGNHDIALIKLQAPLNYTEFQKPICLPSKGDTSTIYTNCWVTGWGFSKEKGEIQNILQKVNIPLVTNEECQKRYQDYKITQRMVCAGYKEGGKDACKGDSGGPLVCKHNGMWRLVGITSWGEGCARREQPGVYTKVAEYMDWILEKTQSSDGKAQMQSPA
T1 sequence (P03952 20-390 partner limits assumed): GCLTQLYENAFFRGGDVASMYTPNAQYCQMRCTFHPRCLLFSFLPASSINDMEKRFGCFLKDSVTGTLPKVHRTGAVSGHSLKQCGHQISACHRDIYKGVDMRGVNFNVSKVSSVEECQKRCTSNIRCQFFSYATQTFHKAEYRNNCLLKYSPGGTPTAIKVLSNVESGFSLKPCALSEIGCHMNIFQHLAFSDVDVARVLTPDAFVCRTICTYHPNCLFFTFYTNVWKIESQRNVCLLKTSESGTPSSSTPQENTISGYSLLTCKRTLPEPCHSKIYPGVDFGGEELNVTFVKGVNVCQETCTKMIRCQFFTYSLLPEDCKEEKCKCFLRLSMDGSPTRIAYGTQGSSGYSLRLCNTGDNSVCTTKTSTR
Procedure, shortened: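 Purified human plasma kallikrein at 0.5 nM final with substrate Acetyl-K-P-R-AFC at […], in 50 mM HEPES pH 7.4, 150 mM NaCl, 5 mM CaCl2, 0.1% PEG 8000, at rt or 37° C after enzyme-inhibitor equilibration. IC50 from four-parameter logistic fit of fluorescence rate; Ki via Cheng-Prusoff.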

[2] = biological target: human factor XIa (Homo sapiens, UniProt P03951); experiment: Factor XIa Assay; format: biochemical; details: human factor XIa 0.04 nM, substrate GPR-AFC, 30 min pre-incubation, 25° C., pH 7.4; read-out: FXIa IC50
Sequence of human factor XIa (P03951 388-625 limits assumed): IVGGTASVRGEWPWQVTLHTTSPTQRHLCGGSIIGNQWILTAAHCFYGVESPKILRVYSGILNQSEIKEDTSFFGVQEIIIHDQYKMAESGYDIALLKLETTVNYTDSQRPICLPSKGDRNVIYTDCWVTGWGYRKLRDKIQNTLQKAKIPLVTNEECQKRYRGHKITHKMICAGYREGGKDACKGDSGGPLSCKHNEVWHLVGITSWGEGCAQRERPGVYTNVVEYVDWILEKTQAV
Sequence of human factor XIa (P03951 19-387 partner limits assumed): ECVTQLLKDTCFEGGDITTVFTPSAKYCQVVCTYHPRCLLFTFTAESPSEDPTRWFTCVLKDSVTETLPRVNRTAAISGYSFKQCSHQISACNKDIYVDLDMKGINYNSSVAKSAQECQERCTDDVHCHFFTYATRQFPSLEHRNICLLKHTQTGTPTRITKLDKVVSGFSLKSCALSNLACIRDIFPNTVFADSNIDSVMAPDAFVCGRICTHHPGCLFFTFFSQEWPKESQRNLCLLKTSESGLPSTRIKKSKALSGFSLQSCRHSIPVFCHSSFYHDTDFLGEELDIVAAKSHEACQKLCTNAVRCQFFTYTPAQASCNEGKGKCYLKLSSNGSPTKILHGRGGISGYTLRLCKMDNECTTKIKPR

| IC50 [1] [nM] | IC50 [2] [nM] | Structure (SMILES) |
| --- | --- | --- |
| 42.8 | 3180 | Nc1c(C(=O)N2CCC[C@@]3(C2)OC(=O)Nc2ccc(Cl)c(F)c23)cnn1CCN1CCOCC1 [Example 14, (R)-1'-(5-Amino-1-(2-morpholinoethyl)-1H-pyrazole-4-carbonyl)-6-chloro-5-fluorospiro[benzo[d][1,3]oxazine-4,3'-piperidin]-2(1H)-one] |
| 1.4 | 75 | Nc1c(C(=O)N2CCC[C@@]3(C2)OC(=O)Nc2ccc(Cl)c(F)c23)cnn1C(C1CC1)C(F)(F)F (single isomer, unassigned) [Example 124, (R)-1'-(5-Amino-1-((R or S)-1-cyclopropyl-2,2,2-trifluoroethyl)-1H-pyrazole-4-carbonyl)-6-chloro-5-fluorospiro[benzo[d][1,3]oxazine-4,3'-piperidin]-2(1H)-one] |
| 5.5 | 353 | CC(C)c1ccccc1-n1ncc(C(=O)N2CCC[C@@]3(C2)OC(=O)Nc2ccc(Cl)c(F)c23)c1N [Example 81, (R)-1'-(5-Amino-1-(2-isopropylphenyl)-1H-pyrazole-4-carbonyl)-6-chloro-5-fluorospiro[benzo[d][1,3]oxazine-4,3'-piperidin]-2(1H)-one] |
| 12.6 | 1100 | CC(C)OCCn1ncc(C(=O)N2CCC[C@@]3(C2)OC(=O)Nc2ccc(Cl)c(F)c23)c1N [Example 21, (R)-1'-(5-Amino-1-(2-isopropoxyethyl)-1H-pyrazole-4-carbonyl)-6-chloro-5-fluorospiro[benzo[d][1,3]oxazine-4,3'-piperidin]-2(1H)-one] |
| 8 | 905 | Nc1c(C(=O)N2CCC[C@@]3(C2)OC(=O)Nc2ccc(Cl)c(F)c23)cnn1Cc1ccc(C(F)(F)F)nc1 [Example 43, (R)-1'-(5-Amino-1-((6-(trifluoromethyl)pyridin-3-yl)methyl)-1H-pyrazole-4-carbonyl)-6-chloro-5-fluorospiro[benzo[d][1,3]oxazine-4,3'-piperidin]-2(1H)-one] |
| 39.6 | 1690 | COc1cccnc1-n1ncc(C(=O)N2CCC[C@@]3(C2)OC(=O)Nc2ccc(Cl)c(F)c23)c1N [Example 108, (R)-1'-(5-Amino-1-(3-methoxypyridin-2-y1)-1H-pyrazole-4-carbonyl)-6-chloro-5-fluorospiro[benzo[d][1,3]oxazine-4,3'-piperidin]-2(1H)-one] |
| 8 | 328 | CC(C)Cn1ncc(C(=O)N2CCC[C@@]3(C2)OC(=O)Nc2ccc(Cl)c(F)c23)c1N [Example 17, (R)-1'-(5-Amino-1-isobutyl-1H-pyrazole-4-carbonyl)-6-chloro-5-fluorospiro[benzo[d][1,3]oxazine-4,3'-piperidin]-2(1H)-one] |
| 2 | 418 | Nc1c(C(=O)N2CCC[C@@]3(C2)OC(=O)Nc2ccc(Cl)c(F)c23)cnn1Cc1cccnc1 [Example 55, (R)-1'-(5-Amino-1-(pyridin-3-ylmethyl)-1H-pyrazole-4-carbonyl)-6-chloro-5-fluorospiro[benzo[d][1,3]oxazine-4,3'-piperidin]-2(1H)-one] |
| 17.8 | ≥ 10000 | O=C1Nc2ccc(Cl)c(F)c2[C@@]2(CCCN(C(=O)c3cnn(Cc4ccc(F)cc4)c3O)C2)O1 [Example 132, (R)-6-Chloro-5-fluoro-1′-(1-(4-fluorobenzyl)-5-hydroxy-1H-pyrazole-4-carbonyl)spiro[benzo[d][1,3]oxazine-4,3′-piperidin]-2(1H)-one] |
| 6.6 | 215 | Nc1c(C(=O)N2CCC[C@@]3(C2)OC(=O)Nc2ccc(Cl)c(F)c23)cnn1-c1ccccc1OC(F)F [Example 90, (R)-1'-(5-Amino-1-(2-(difluoromethoxy)phenyl)-1H-pyrazole-4-carbonyl)-6-chloro-5-fluorospiro[benzo[d][1,3]oxazine-4,3'-piperidin]-2(1H)-one] |
| 8.9 | 1200 | CC(C)n1ncc(C(=O)N2CCC[C@@]3(C2)OC(=O)Nc2ccc(Cl)c(F)c23)c1N [Example 34, (R)-1'-(5-Amino-1-isopropyl-1H-pyrazole-4-carbonyl)-6-chloro-5-fluorospiro[benzo[d][1,3]oxazine-4,3'-piperidin]-2(1H)-one] |
| 35.9 | 813 | Nc1c(C(=O)N2CCC[C@@]3(C2)OC(=O)Nc2ccc(Cl)c(F)c23)cnn1-c1cc(F)ccc1Cl [Example 78, (R)-1'-(5-Amino-1-(2-chloro-5-fluorophenyl)-1H-pyrazole-4-carbonyl)-6-chloro-5-fluorospiro[benzo[d][1,3]oxazine-4,3'-piperidin]-2(1H)-one] |
| 1.1 | 251 | Nc1c(C(=O)N2CCC[C@@]3(C2)OC(=O)Nc2ccc(Cl)c(F)c23)cnn1Cc1ccccc1Cl [Example 44, (R)-1'-(5-Amino-1-(2-chlorobenzyl)-1H-pyrazole-4-carbonyl)-6-chloro-5-fluorospiro[benzo[d][1,3]oxazine-4,3'-piperidin]-2(1H)-one] |
| 6.3 | 731 | Nc1c(C(=O)N2CCC[C@@]3(C2)OC(=O)Nc2ccc(Cl)c(F)c23)cnn1C1(C(F)(F)F)CCC1 [Example 47, (R)-1'-(5-Amino-1-(1-(trifluoromethyl)cyclobutyl)-1H-pyrazole-4-carbonyl)-6-chloro-5-fluorospiro[benzo[d][1,3]oxazine-4,3'-piperidin]-2(1H)-one] |
| 46.2 | 7320 | CC(=O)Nc1ccc(-n2ncc(C(=O)N3CCC[C@@]4(C3)OC(=O)Nc3ccc(Cl)c(F)c34)c2N)cc1 [Example 67, (R)-N-(4-(5-Amino-4-(6-chloro-5-fluoro-2-oxo-1,2-dihydrospiro[benzo[d][1,3]oxazine-4,3'-piperidine]-1'-carbonyl)-1H-pyrazol-1-yl)phenyl)acetamide] |
| 39.7 | 3130 | COc1ccc(-n2ncc(C(=O)N3CCC[C@@]4(C3)OC(=O)Nc3ccc(Cl)c(F)c34)c2N)cc1 [Example 58, (R)-1'-(5-Amino-1-(4-methoxyphenyl)-1H-pyrazole-4-carbonyl)-6-chloro-5-fluorospiro[benzo[d][1,3]oxazine-4,3'-piperidin]-2(1H)-one] |
| 27.3 | 923 | Nc1c(C(=O)N2CCC[C@@]3(C2)OC(=O)Nc2ccc(Cl)c(F)c23)cnn1-c1ccccc1F [Example 84, (R)-1'-(5-Amino-1-(2-fluorophenyl)-1H-pyrazole-4-carbonyl)-6-chloro-5-fluorospiro[benzo[d][1,3]oxazine-4,3'-piperidin]-2(1H)-one] |
| 6.8 | 1020 | CC(C1CC1)(n1ncc(C(=O)N2CCC[C@@]3(C2)OC(=O)Nc2ccc(Cl)c(F)c23)c1N)C(F)(F)F (single isomer, unassigned) [Example 127, (R)-1'-(5-Amino-1-((S or R)-2-cyclopropyl-1,1,1-trifluoropropan-2-y1)-1H-pyrazole-4-carbonyl)-6-chloro-5-fluorospiro[benzo[d][1,3]oxazine-4,3'-piperidin]-2(1H)-one] |
| 0.9 | 252 | Nc1c(C(=O)N2CCC[C@@]3(C2)OC(=O)Nc2ccc(Cl)c(F)c23)cnn1Cc1cccc(F)c1 [Example 9, (R)-1'-(5-Amino-1-(3-fluorobenzyl)-1H-pyrazole-4-carbonyl)-6-chloro-5-fluorospiro[benzo[d][1,3]oxazine-4,3'-piperidin]-2(1H)-one] |
